Measurements reported in patent US8017612B2, “Piperazine compound and use thereof as a HCV polymerase inhibitor” (priority 2006, dated 2011).

What was measured:
[1] = target: T1, HCV polymerase (NS5B) type 1a (Hepatitis C virus genotype 1a, UniProt P26664); assay: Assay of enzyme (HCV polymerase) inhibitory activity, type 1a enzyme; assay type: biochemical, HCV type 1a (cloned from the blood of patients); details: HCV polymerase inhibitory activity IC50, 1a, type 1a enzyme
T1 construct: made in house; host or cells: Escherichia coli (by the 'similar method' of the 1b enzyme)
Summary of the method: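 Patient-derived type 1a NS5B (C-terminal 47-aa deletion, His-tagged, E. coli-expressed) at 1.5 μg/ml was reacted with 5 μg/ml 3′UTR-containing substrate RNA, 50 μM ATP/GTP/CTP, 2 μM UTP plus [3H]UTP, pH 7.5, 25° C for 60 min. TCA-precipitated RNA radioactivity was counted; IC50 from ± compound.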

[2] = target: T2, HCV polymerase (NS5B) type 1b (Hepatitis C virus genotype 1b, UniProt P26663); assay: Assay of enzyme (HCV polymerase) inhibitory activity, type 1b enzyme; assay type: biochemical, HCV BK strain (type 1b); details: HCV polymerase inhibitory activity IC50, 1b, type 1b enzyme
T2 construct: a region encoding NS5B (J Virol 1991 March, 65(3), 1105-13, 544 amino acids after deletion of 47 amino acids on the C-terminal); 6xHis (C); made in house; host or cells: Escherichia coli
Summary of the method: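 NS5B from HCV BK strain (type 1b), C-terminal 47 aa deleted, C-terminal His6-tagged, E. coli-expressed, 0.5 μg/ml, with ~450 nt substrate RNA carrying the 3′ UTR (polyU, 3′X) at 5 μg/ml. Incubation 60 min at 25 °C with 50 μM ATP/GTP/CTP, 2 μM UTP plus [3H]UTP, pH 7.5 Tris.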

O=C(CC(=O)N1CCN(S(=O)(=O)c2ccc(OC(F)(F)F)cc2)[C@@H](C(=O)NCc2ccc(OC(F)(F)F)cc2)C1)Nc1nnc(Br)s1 [Example 988, (R)-4-[2-(5-bromo-[1,3,4]thiadiazol-2-ylcarbamoyl)-acetyl]-1-(4-trifluoromethoxy-benzenesulfonyl)-piperazine-2-carboxylic acid 4-trifluoromethoxy-benzylamide]
IC50 [1]: > 1000 nM | IC50 [2]: > 1000 nM

O=C(NCc1cc2ccccn2c1)[C@H]1CN(c2nc3ncncc3s2)CCN1S(=O)(=O)c1ccc(OC(F)(F)F)cc1 [Example 989, (R)-4-thiazolo[4,5-d]pyrimidin-2-yl-1-(4-trifluoromethoxy-benzenesulfonyl)-piperazine-2-carboxylic acid (indolizin-2-ylmethyl)-amide]
IC50 [1]: < 100 nM | IC50 [2]: < 100 nM

CNC(=O)c1cc(=O)nc2sc(N3CCN(S(=O)(=O)c4ccc(OC(F)(F)F)cc4)[C@@H](C(=O)NCc4ccc(OC(F)(F)F)cc4)C3)nn12 [Example 990, 7-oxo-2-[(R)-4-(4-trifluoromethoxy-benzenesulfonyl)-3-(4-trifluoromethoxy-benzylcarbamoyl)-piperazin-1-yl]-7H-[1,3,4]thiadiazolo[3,2-a]pyrimidine-5-carboxylic acid methylamide]
IC50 [1]: < 100 nM | IC50 [2]: < 100 nM

CC(C)c1ncc2sc(N3CCN(S(=O)(=O)c4ccc(C(F)(F)F)cc4)[C@@H](C(=O)NCc4ccc(OC(F)(F)F)cc4)C3)nc2n1 [Example 991, (R)-4-(5-isopropyl-thiazolo[4,5-d]pyrimidin-2-yl)-1-(4-trifluoromethyl-benzenesulfonyl)-piperazine-2-carboxylic acid 4-trifluoromethoxy-benzylamide]
IC50 [1]: < 100 nM | IC50 [2]: < 100 nM

O=C(NCc1ccc(OC(F)(F)F)cc1)[C@H]1CN(c2nc3nc(CC4CC4)ncc3s2)CCN1S(=O)(=O)c1ccc(OC(F)(F)F)cc1 [Example 992, (R)-4-(5-cyclopropylmethyl-thiazolo[4,5-d]pyrimidin-2-yl)-1-(4-trifluoromethoxy-benzenesulfonyl)-piperazine-2-carboxylic acid 4-trifluoromethoxy-benzylamide]
IC50 [1]: < 100 nM | IC50 [2]: < 100 nM

CCN(CC)c1nc2nc(Cl)nc(N3CCN(S(=O)(=O)c4ccc(OC(F)(F)F)cc4)[C@@H](C(=O)NCc4ccc(OC(F)(F)F)cc4)C3)c2s1 [Example 993, (R)-4-(5-chloro-2-diethylamino-thiazolo[4,5-d]pyrimidin-7-yl)-1-(4-trifluoromethoxy-benzenesulfonyl)-piperazine-2-carboxylic acid 4-trifluoromethoxy-benzylamide]
IC50 [1]: > 1000 nM | IC50 [2]: > 1000 nM

CC(C)(O)C#Cc1ncc2sc(N3CCN(S(=O)(=O)c4ccc(OC(F)(F)F)cc4)[C@@H](C(=O)NCc4ccc(OC(F)(F)F)cc4)C3)nc2n1 [Example 994, (R)-4-[5-(3-hydroxy-3-methyl-but-1-ynyl)-thiazolo[4,5-d]pyrimidin-2-yl]-1-(4-trifluoromethoxy-benzenesulfonyl)-piperazine-2-carboxylic acid 4-trifluoromethoxy-benzylamide]
IC50 [1]: < 100 nM | IC50 [2]: < 100 nM

C#Cc1ncc2sc(N3CCN(S(=O)(=O)c4ccc(OC(F)(F)F)cc4)[C@@H](C(=O)NCc4ccc(OC(F)(F)F)cc4)C3)nc2n1 [Example 995, (R)-4-(5-ethynyl-thiazolo[4,5-d]pyrimidin-2-yl)-1-(4-trifluoromethoxy-benzenesulfonyl)-piperazine-2-carboxylic acid 4-trifluoromethoxy-benzylamide]
IC50 [1]: < 100 nM | IC50 [2]: < 100 nM

O=C(NCc1ccc(S(F)(F)(F)(F)F)cc1)[C@H]1CN(c2nc3ncncc3s2)CCN1S(=O)(=O)c1ccc(OC(F)(F)F)cc1 [Example 996, (R)-4-thiazolo[4,5-d]pyrimidin-2-yl-1-(4-trifluoromethoxy-benzenesulfonyl)-piperazine-2-carboxylic acid 4-pentafluorosulfanyl-benzylamide]
IC50 [1]: < 100 nM | IC50 [2]: < 100 nM
